Experimental data taken from US6562817B1, “Tricyclic compound” (Shionogi & Co., Ltd., priority 1998, dated 2003).

How the values were obtained:
[1] = test system: anti-OVA IgE production in BALB/c mice; assay: Suppressive effect on the IgE production against ovalbumin (OVA): anti-OVA IgE antibody titer (PCA titer); format: in vivo, mouse; details: BALB/c mice immunized with OVA, 40 mg/kg orally for 10 days; titer = highest 2^n serum dilution positive in rat PCA
Method: Suppressive effect on the IgE Production Against ovalbumin (OVA)
BALB/c mice (female, 8-10 weeks old) and Wistar rats (female, 8-10 weeks old) which were bought from Japan SLC, Inc. (Shizuoka) were used.
BALB/c mice were immunized by an intraperitoneal administration of 0.2 ml suspension of 2 μg of ovalbumin (OVA) and 2 mg of aluminium hydroxide gel in physiological saline. After 10 days, blood was collected from hearts, then sera were separated and stocked at −40° C. till the measurement of IgE antibody titer.
After the compound of the present invention was dissolved or suspended in N,N-dimethylacetoamide, the mixture was diluted 20 times with miglyol 812 neutral oil. The obtained solution was orally administered to mice at 0.1 ml per mouse (dose 40 mg/kg). The administration was continued for 10 days from the immunizing day to the day before the blood collection.
The obtained mouse serum was 2-fold diluted with physiological saline, then each 50 μl of the solution was intradermally injected at dorsal skin of Wistar rats which previously hair cut. After 24 hours, a passive cutaneous anaphylaxis reaction (PCA) was induced by an intravenous injection of 0.5 ml of physiological saline containing 1 mg of OVA and 5 mg of Evans' blue dye. The rats were sacrified 30 minutes later and the highest dilution giving bluing with a diameter of 5 mm or more was recorded as the PCA titer. […]

- melting point: 87 to 88 °C
SMILES: CC(C)=CCNc1ccc(-c2cc(C)c(-c3ccc(OCC=C(C)C)nc3)cc2C)c(F)c1 [Ib-250]
- PCA Titer [1]: 0
